Laboratory results: patent US6897065B1, “Method for maturation of conifer somatic embryos” (Woody Plant Biotech APS, priority 1999, dated 2005)

What was measured:
[1] = tested on: Abies nordmanniana cell lines; experiment: Maturation of Abies nordmanniana cell lines with different carbohydrate sources (shift from maltose to sucrose); format: cell-based; settings: for development of mature embryos: 45 g/L as sole carbohydrate source during the entire maturation period (treatments A, B)
Protocol: Except from the carbohydrates, the basic maturation medium was composed as described for the control in example 1. However, PCIB was included in a prior determined optimum concentration and period for each of the tested cell lines. Four treatments with different combinations of carbohydrates were tested during maturation: • A) Maturation on culture medium comprising 45 g/L sucrose as carbohydrate source during the entire maturation period. • B) Maturation on culture medium comprising 45 g/L maltose as carbohydrate source during the entire maturation period. Typical embryo from the treatment is disclosed in the left picture of FIG. 9. • C) Maturation on culture medium with 45 g/L maltose during the first part of the maturation period, followed by a shift to maturation medium comprising 22.5 g/L sucrose and 22.5 g/L maltose during the last two weeks of the maturation period. Typical embryo from the treatment is disclosed in the right picture of FIG. 9. • D) Maturation on culture medium with 45 g/L maltose during the first part of the maturation period, followed by a shift to maturation medium comprising 45 g/L sucrose as carbohydrate source for the last two weeks of the maturation period. Typical embryo from the treatment is disclosed in the center picture of FIG. 9. Results

[2] = tested on: embryogenic cell lines of Abies nordmanniana; experiment: Maturation of the tested established Abies nordmanniana embryogenic cell lines (G.3.8, G.35.8, G.78.14); format: cell-based
From the text: Three different cell lines of Abies nordmanniana were used in the present study. The tested cell lines have been in continuous culture for several years. The cell line G.3.8 was initiated from an immature zygotic embryo in 1989 on half strength MS medium (Murashige and Skoog, 1962) as described previously (Nørgaard and Krogstrup, 1991), Cell line G.35.8 was initiated from a mature zygotic embryo on SH medium in 1991 (Nørgaard and Krogstrup, 1995), and cell line G.78.14 was initiated in 1993 from an immature zygotic embryo on modified half strength BLG medium (Verhagen and Wann, 1989). From 1996, all cultures were maintained by biweekly subculture onto fresh half strength modified BLG medium and grown at 24+/−1° C. in the dark. Cell lines G.3.8 and G.78.14 proliferated fast on maintenance medium with a doubling time of the weight shorter than 2 weeks. Cell line G.35.8 proliferated relatively slowly with a doubling time of the weight higher than 2 weeks.
The standard maturation medium (the control) is modified from the half strength BLG proliferation medium mentioned above. […] The choice of these three culture medium components is determined primarily by the conifer species in question. […] Similarly it is known that addition of PEG-4000 improves maturation. Still it may be possible to obtain just as good results with other combinations of these components and also by using other components with equivalent effects.
In this experiment, the standard maturation medium was modified by excluding PEG and by including one of the following 3 chemicals, that are traditionally expected to affect the endogenous concentration of the naturally occurring auxin IAA or to affect the normal effect of auxin in plant cells: 1) PCIB (auxin-antagonist) in a concentration of 25 or 117 μM, 2) TIBA (auxin transport inhibitor) in a concentration of 5 or 50 μM, 3) phlouroglucinol: (inhibitor of auxin degradation) (see George 1993, page 429 bottom-430) in a concentration of 30 mM. In addition to these modifications the standard maturation medium was modified by: 4) reducing the concentration of boron (precursor of indole acetic acid synthesis) to 10 μM, i.e. 20% of the normal concentration and finally by 5) including 25 μM PCIB in medium with no ABA.
The cultures were matured in the dark at 24° C.+/−1° C.
Two weeks after the last subculture, 4 grams of embryogenic cells was transferred to a 250 mL Flask (Blue cap) together with a magnet stirrer. 100 mL of liquid proliferation medium was added, and the suspension was stirred for 5 minutes at high speed on a magnet stirrer to obtain a homogenous suspension of cells and cell clumps. The culture was then pre-cultured on a gyrotory shaker (120 rpm) for one week at 24+/−1° C. in the dark. Following the pre-culture, the culture was stirred again on a magnet stirrer at high speed for 5 minutes. The culture was transferred to a 100 mL measuring cylinder and allowed to settle for 30 min. The supernatant was discharged and from the remaining culture aliquots of 1 mL were transferred with a cut pipette tip onto filter paper (Whatmann #2) placed on 25 mL of maturation medium in 10 cm Petri dishes (Nunc, Denmark). The filters containing the maturing somatic cultures were transferred onto fresh medium every 2 weeks.
FIG. 5 discloses maturation of cell line G.78.14. This cell line proliferates rapidly and produces very few normal mature embryos according to prior methods. The cell line was matured for 20 weeks on medium comprising 40 μM ABA and a) 25 μM PCIB, b) 0.4 mM phloroglucinol, or c) reduced concentration of Boron (20% of normal concentration). For control see FIG. 1a or 2a.
FIG. 6 discloses maturation of cell line G.78.14 for 20 weeks on maturation medium comprising 40 μM ABA and a) 2.5 mg/L TIBA (5 μM), or b) 25 mg/L TIBA (50 μM).

SMILES: OC[C@H]1O[C@H](O[C@H]2[C@H](O)[C@@H](O)C(O)O[C@@H]2CO)[C@H](O)[C@@H](O)[C@@H]1O (mixture of isomers) [maltose]
- development of mature embryos [1]: high numbers of embryos were produced
- average fresh weight of mature embryos ([1]; treatment B: 45 g/L maltose during the entire maturation period): about 50 mg

SMILES: O=C(O)c1cc(I)cc(I)c1I [TIBA, 2,3,5-tri-iodobenzoic acid]
- development of mature embryos ([2]; TIBA 5 and 50 μM + 40 μM ABA, 20 weeks): only very few, and mostly abnormal, mature embryos developed
- proliferation on the maturation medium ([2]; TIBA 5 and 50 μM + 40 μM ABA, all tested cell lines): strong reduction of the proliferation

SMILES: Oc1cc(O)cc(O)c1 [phloroglucinol]
- proliferation during maturation ([2]; phloroglucinol 0.4 mM + 40 μM ABA): proliferation was increased
- development of well developed embryos ([2]; phloroglucinol 0.4 mM + 40 μM ABA, 20 weeks): no well developed embryos were found

SMILES: OC[C@H]1O[C@@](CO)(O[C@H]2O[C@H](CO)[C@@H](O)[C@H](O)[C@H]2O)[C@@H](O)[C@@H]1O [sucrose]
- development of mature embryos [1]: no well developed mature embryos were produced
- size of the mature embryos ([1]; shift from maltose to medium including sucrose during the last two weeks of maturation (treatments C and D)): clear increase in the size of the mature embryos
- reduction of the maturation period, treatment D compared to treatment B ([1]; shift to 45 g/L sucrose for the last two weeks): about four
- average fresh weight of mature embryos ([1]; treatment D: 45 g/L maltose, shift to 45 g/L sucrose for the last two weeks): about 120 mg per embryo
